Where two headings read alike, the source gives them in different places.

The values below come from patent US10525054B2 (dated 2020).

The test system of one data set is squirrel monkeys. Particulars: cited from earlier work.
Data set [1] deals with cocaine-trained rats. Particulars: cited from earlier work.
Data set [2] has as its system acetic acid induced writhing in mice. As to the kind of experiment: Acetic acid writhing assay in mice. Format: in vivo. Particulars: for Mean Number of writhes: in combination with Diclofenac (3 mg/kg), 30 minutes prior to i.p. 0.5% acetic acid, counted 0-20 minutes. (In writhing tests, fewer writhes than in controls are read as antinociception.)
The test system of data set [3] is cocaine-trained rats. Particulars: doses of up to 3.2 mg/kg/injection; three-day substitution tests and progressive ratio tests; cited from earlier work.

`COc1ccc2c3c1O[C@H]1C(=O)CC[C@@]4(O)[C@@H](C2)N(C)CC[C@]314` [oxycodone]: the “injection lever responses (% ILR)” value in the data set on squirrel monkeys (0.1 mg/kg/injection IV) is 100%. Besides, the results for the “mean progressive ratio breakpoint” value in the data set with cocaine-trained rats [1] (0.01 mg/kg/infusion) and in the data set with cocaine-trained rats [1] (0.032 mg/kg/infusion) were 56 and 79, respectively.
Consider `COc1ccc2c3c1O[C@H]1C(=O)CC[C@H]4[C@@H](C2)N(C)CC[C@]314` [hydrocodone], for which, in the data set with cocaine-trained rats [1] (0.18 mg/kg/infusion), the progressive ratio breakpoint is on record as 114.
For the compound `COC(=O)[C@H]1[C@@H](OC(=O)c2ccccc2)C[C@@H]2CC[C@H]1N2C` [cocaine], the progressive ratio breakpoint in the data set with cocaine-trained rats [1] (maintenance dose 0.56 mg/kg/infusion) was 128 responses.
`COCCOCCOCCOCCO[C@H]1CC[C@@]2(O)[C@H]3Cc4ccc(OC)c5c4[C@@]2(CCN3C)[C@H]1O5` [α-6-mPEG4-O-hydroxycodone]: the figures for the “Mean Number of writhes” value in data set [2] (dose 5 mg/kg oral) and in data set [2] (dose 10 mg/kg oral) were 13 and 4.8, respectively.
Regarding `COCCOCCOCCOCCOCCO[C@H]1CC[C@@]2(O)[C@H]3Cc4ccc(OC)c5c4[C@@]2(CCN3C)[C@H]1O5` [α-6-mPEG5-O-hydroxycodone], in data set [2] (combination with diclofenac (3 mg/kg)), the “reduction of writhings, combination versus each compound individually (FIG. 2)” value is given as “measured reduction of writhings that is greater than the number of writhings when each compound is individually administered”. In addition, the “Mean Number of writhes” value was determined as 7.2 in data set [2] (dose 5 mg/kg oral) and 1.4 in data set [2] (dose 10 mg/kg oral).
For `COCCOCCOCCOCCOCCOCCO[C@H]1CC[C@@]2(O)[C@H]3Cc4ccc(OC)c5c4[C@@]2(CCN3C)[C@H]1O5` [α-6-mPEG6-O-hydroxycodone], the “Mean Number of writhes” value in data set [2] (dose 5 mg/kg oral) was 6.2; in data set [2] (dose 10 mg/kg oral) it was 4. Also, the figures for the “injection lever responses (% ILR)” value with squirrel monkeys (0.32 mg/kg IV), in the data set with squirrel monkeys (1.0 mg/kg IV) and in the data set on squirrel monkeys (3.2 mg/kg IV) were 22%, 39% and 50%, respectively. In addition, the “exclusive injection lever responding, number of subjects” value in the data set on squirrel monkeys (highest dose tested, 3.2 mg/kg/injection, 3-4 subjects) is “only two subjects”. Further, the reinforcing strength entry with squirrel monkeys (highest doses tested of 3.2 mg/kg/injection) is recorded as “marked reduction in reinforcing strength”. Also, in the data set on squirrel monkeys (monkeys), the “potency in self-administration relative to oxycodone and morphine” value is “significantly lower potency than oxycodone and morphine”. The “behavioral evidence of positive reinforcement” value with cocaine-trained rats [3] was “no behavioral evidence of positive reinforcement”. Besides, in the data set on cocaine-trained rats [1] (behaved like saline), the “reinforcing properties in progressive ratio tests” value is “no reinforcing properties”. The “progressive ratio breakpoints compared with saline” value in the data set with cocaine-trained rats [1] (five out of six tested doses) is recorded as “lower than that produced by saline”.
For `CN1CC[C@]23c4c5ccc(O)c4O[C@H]2[C@@H](O)C=C[C@H]3[C@H]1C5` [morphine, reference compound], in the data set with squirrel monkeys (0.03 mg/kg/injection IV), the “injection lever responses (% ILR)” value is 100%.
